Type in all cases: cell-based
One test has as its system BaF3_EGFRWT cells. Nature of the test: Cell growth inhibition assay, BaF3_EGFRWT. To be noted: 80 ng/mL recombinant human EGF, 3 days treatment, CellTiterGlo 2.0, read-out: EGFR WT IC50 (nM), cell growth inhibition. In general terms: In ATP-based viability assays light output follows the ATP content of the culture.
The subject of a further test is BaF3_HER2YVMA cells. Nature of the test: Cell growth inhibition assay, BaF3_HER2YVMA. To be noted: BaF3_HER2YVMA cells, 3 days treatment, CellTiterGlo 2.0, read-out: HER2-YVMA IC50 (nM), cell growth inhibition.
Another test relates to BaF3_HER2WT cells. Kind of test: Cell growth inhibition assay, BaF3_HER2WT. The note with it: 3 days treatment, CellTiterGlo 2.0, read-out: HER2 WT IC50 (nM), cell growth inhibition.

Read-outs that look alike come from different tables or passages of the source. Bounds are passed on as bounds.

Usually IC50 stands for the concentration needed to halve the response being measured. `C=C(CN(C)C)C(=O)N1C2CCC1CN(c1ccn3ncnc(Nc4ccc(Oc5ccn6ncnc6c5)c(C)c4)c13)C2` [Example 48, 1-(3-(4-((4-([1,2,4]triazolo[1,5-a]pyridin-7-yloxy)-3-methylphenyl)amino)pyrrolo[2,1-f][1,2,4]triazin-5-yl)-3,8-diazabicyclo[3.2.1]octan-8-yl)-2-((dimethylamino)methyl)prop-2-en-1-one]: the results for the half-inhibitory concentration (IC50) in the test on BaF3_EGFRWT cells (72 h), in the test with BaF3_HER2YVMA cells (72 h) and in the test with BaF3_HER2WT cells (72 h) were 1500 to 5000 nM, 1500 to 5000 nM and 200 to 500 nM, respectively.
On to `Cc1cc(Nc2ncnn3ccc(N4CC5CCC(C4)N5C(=O)/C=C/CN(C)C)c23)ccc1Oc1ccn2ncnc2c1` [Example 47, (E)-1-(3-(4-((4-([1,2,4]triazolo[1,5-a]pyridin-7-yloxy)-3-methylphenyl)amino)pyrrolo[2,1-f][1,2,4]triazin-5-yl)-3,8-diazabicyclo[3.2.1]octan-8-yl)-4-(dimethylamino)but-2-en-1-one], for which the IC50 with BaF3_EGFRWT cells (72 h) was 1500 to 5000 nM; in the test on BaF3_HER2YVMA cells (72 h) it was less than 200 nM; with BaF3_HER2WT cells (72 h), less than 200 nM.
As for `C#CCN(C)C/C=C/C(=O)N1CCC(c2ccn3ncnc(Nc4ccc(Oc5ccn6ncnc6c5)c(C)c4)c23)CC1` [Example 59, (E)-1-(4-(4-((4-([1,2,4]triazolo[1,5-a]pyridin-7-yloxy)-3-methylphenyl)amino)pyrrolo[2,1-f][1,2,4]triazin-5-yl)piperidin-1-yl)-4-(methyl(prop-2-yn-1-yl)amino)but-2-en-1-one], the concentration for half-maximal inhibition (IC50) with BaF3_EGFRWT cells (72 h) was 1500 to 5000 nM; with BaF3_HER2YVMA cells (72 h), 200 to 500 nM; in the test on BaF3_HER2WT cells (72 h), less than 200 nM.
On the same counts, the results for `C=CC(=O)NC1CCN(C(=O)c2ccn3ncnc(Nc4ccc(Oc5ccn6ncnc6c5)c(C)c4)c23)C1` (stereo not drawn) [Example 4, N-(1-(4-((4-([1,2,4]triazolo[1,5-a]pyridin-7-yloxy)-3-methylphenyl)amino)pyrrolo[2,1-f][1,2,4]triazine-5-carbonyl)pyrrolidin-3-yl)acrylamide] are 1500 to 5000 nM, less than 200 nM and less than 200 nM.
For `C=CC(=O)N(C)C1CCN(c2ccn3ncnc(Nc4ccc(Oc5ccn6ncnc6c5)c(C)c4)c23)C1` (stereo not drawn) [Example 72, N-(1-(4-((4-([1,2,4]triazolo[1,5-a]pyridin-7-yloxy)-3-methylphenyl)amino)pyrrolo[2,1-f][1,2,4]triazin-5-yl)pyrrolidin-3-yl)-N-methylacrylamide], in that order: 1500 to 5000 nM, less than 200 nM and less than 200 nM.
For `C=CC(=O)N1CCN(c2ccn3ncnc(Nc4ccc(Oc5ccc6c(c5)ncn6C)c(C)c4)c23)CC1` [Example 121, 1-(4-(4-((3-methyl-4-((1-methyl-1H-benzo[d]imidazol-5-yl)oxy)phenyl)amino)pyrrolo[2,1-f][1,2,4]triazin-5-yl)piperazin-1-yl)prop-2-en-1-one], in that order: 500 to 1500 nM, less than 200 nM and less than 200 nM.
As for `Cc1cc(Nc2ncnn3ccc(N4CCCC(N(C)C(=O)/C=C/CN(C)C)C4)c23)ccc1Oc1ccn2ncnc2c1` (stereo not drawn) [Example 68, (E)-N-(1-(4-((4-([1,2,4]triazolo[1,5-a]pyridin-7-yloxy)-3-methylphenyl)amino)pyrrolo[2,1-f][1,2,4]triazin-5-yl)piperidin-3-yl)-4-(dimethylamino)-N-methylbut-2-enamide], the values for the 50% inhibitory concentration (IC50) in the test on BaF3_EGFRWT cells (72 h), in the test on BaF3_HER2YVMA cells (72 h) and in the test on BaF3_HER2WT cells (72 h) were 1500 to 5000 nM, less than 200 nM and less than 200 nM, respectively.
As to `Cc1cc(Nc2ncnn3ccc(N4C5CCC4CN(C(=O)/C=C/CN(C)C)C5)c23)ccc1Oc1ccn2ncnc2c1` [Example 45, (E)-1-(8-(4-((4-([1,2,4]triazolo[1,5-a]pyridin-7-yloxy)-3-methylphenyl)amino)pyrrolo[2,1-f][1,2,4]triazin-5-yl)-3,8-diazabicyclo[3.2.1]octan-3-yl)-4-(dimethylamino)but-2-en-1-one], the IC50 with BaF3_EGFRWT cells (72 h) was 1500 to 5000 nM; in the test with BaF3_HER2YVMA cells (72 h), less than 200 nM; with BaF3_HER2WT cells (72 h), less than 200 nM.
`Cc1cc(Nc2ncnn3ccc(C4(F)CCN(C(=O)/C=C/CN(C)C)CC4)c23)ccc1Oc1ccn2ncnc2c1` [Example 175, (E)-1-(4-(4-((4-([1,2,4]triazolo[1,5-a]pyridin-7-yloxy)-3-methylphenyl)amino)pyrrolo[2,1-f][1,2,4]triazin-5-yl)-4-fluoropiperidin-1-yl)-4-(dimethylamino)but-2-en-1-one]: the IC50 with BaF3_EGFRWT cells (72 h), with BaF3_HER2YVMA cells (72 h) and in the test on BaF3_HER2WT cells (72 h) was 1500 to 5000 nM each time.
Consider `COC1CCN(C/C=C/C(=O)N2CC(c3ccn4ncnc(Nc5ccc(Oc6ccn7ncnc7c6)c(C)c5)c34)C2)CC1` [Example 42, (E)-1-(3-(4-((4-([1,2,4]triazolo[1,5-a]pyridin-7-yloxy)-3-methylphenyl)amino)pyrrolo[2,1-f][1,2,4]triazin-5-yl)azetidin-1-yl)-4-(4-methoxypiperidin-1-yl)but-2-en-1-one], for which the IC50 was 1500 to 5000 nM in the test on BaF3_EGFRWT cells (72 h), less than 200 nM with BaF3_HER2YVMA cells (72 h) and less than 200 nM in the test on BaF3_HER2WT cells (72 h).
In the case of `Cc1cc(Nc2ncnn3ccc(C4CCCN(C(=O)/C=C/CN(C)C)C4)c23)ccc1Oc1ccn2ncnc2c1` (single isomer, unassigned) [Examples 107 and 108, first eluting isomer, (E)-1-(3-(4-((4-([1,2,4]triazolo[1,5-a]pyridin-7-yloxy)-3-methylphenyl)amino)pyrrolo[2,1-f][1,2,4]triazin-5-yl)piperidin-1-yl)-4-(dimethylamino)but-2-en-1-one], the IC50 in the test on BaF3_EGFRWT cells (72 h) was 1500 to 5000 nM; with BaF3_HER2YVMA cells it was 500 to 1500 nM; with BaF3_HER2WT cells it was less than 200 nM.
As to `Cc1cc(Nc2ncnn3ccc(N4CCC(N(C)C(=O)/C=C/CN(C)C)CC4)c23)ccc1Oc1ccn2ncnc2c1` [Example 73, (E)-N-(1-(4-((4-([1,2,4]triazolo[1,5-a]pyridin-7-yloxy)-3-methylphenyl)amino)pyrrolo[2,1-f][1,2,4]triazin-5-yl)piperidin-4-yl)-4-(dimethylamino)-N-methylbut-2-enamide], the half-maximal inhibitory concentration (IC50) in the test on BaF3_EGFRWT cells (72 h) was 1500 to 5000 nM; in the test with BaF3_HER2YVMA cells (72 h), 500 to 1500 nM; in the test with BaF3_HER2WT cells (72 h) it was less than 200 nM.
With `Cc1cc(Nc2ncnn3ccc(C4CC5CCC4CN5C(=O)/C=C/CN(C)C)c23)ccc1Oc1ccn2ncnc2c1` (single isomer, unassigned; first eluting) [Examples 137 and 138, first eluting isomer], the IC50 in the test on BaF3_EGFRWT cells was 1500 to 5000 nM; in the test with BaF3_HER2YVMA cells, 200 to 500 nM; in the test on BaF3_HER2WT cells, less than 200 nM.
On the same counts, the results for `Cc1cc(Nc2ncnn3ccc(C4CCCN(C(=O)/C=C/CN(C)C)C4)c23)ccc1Oc1ccn2ncnc2c1` (single isomer, unassigned) [Examples 107 and 108, second eluting isomer, (E)-1-(3-(4-((4-([1,2,4]triazolo[1,5-a]pyridin-7-yloxy)-3-methylphenyl)amino)pyrrolo[2,1-f][1,2,4]triazin-5-yl)piperidin-1-yl)-4-(dimethylamino)but-2-en-1-one] are 1500 to 5000 nM, 1500 to 5000 nM and 500 to 1500 nM.
`Cc1cc(Nc2ncnn3ccc(C4CCN(C(=O)C5CC(=O)N5)CC4)c23)ccc1Oc1ccn2ncnc2c1` (stereo not drawn) [Example 36, 4-(4-(4-((4-([1,2,4]triazolo[1,5-a]pyridin-7-yloxy)-3-methylphenyl)amino)pyrrolo[2,1-f][1,2,4]triazin-5-yl)piperidine-1-carbonyl)azetidin-2-one acetate]: the IC50 with BaF3_EGFRWT cells (72 h), in the test with BaF3_HER2YVMA cells (72 h) and with BaF3_HER2WT cells (72 h) was 1500 to 5000 nM each time.

Source of the values: patent US20250276983A1, “COMPOUNDS AND METHODS FOR MODULATING HER2” (IAMBIC THERAPEUTICS, INC., priority 2022, published 2025).
